{"source": "paper PMC6694116", "about": "“A CRISPR-Cas12a-derived biosensing platform for the highly sensitive detection of diverse small molecules” (Nature Communications, 2019)", "key": {"[1]": {"target": "HosA (Escherichia coli, UniProt P69782)", "sequence (P69782 whole entry)": "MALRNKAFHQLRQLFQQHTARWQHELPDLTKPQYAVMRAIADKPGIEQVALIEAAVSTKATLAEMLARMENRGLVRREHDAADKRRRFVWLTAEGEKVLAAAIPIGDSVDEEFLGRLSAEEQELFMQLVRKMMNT", "experiment": "EMSA, dissociation of operator dsDNA", "assay_type": "binding", "details": "pH 7.5, room temperature; allosteric effector"}, "[2]": {"target": "CBD-HosA (Escherichia coli, UniProt P69782)", "sequence (P69782 whole entry)": "as above", "experiment": "EMSA, dissociation of operator dsDNA", "assay_type": "binding", "details": "1.8 mM p-HBA in the specificity test; pH 7.5, room temperature; allosteric effector; also Cas12a read-out with immobilised protein"}, "[3]": {"target": "CBD-TetR (Escherichia coli, UniProt P04483)", "sequence (P04483 whole entry)": "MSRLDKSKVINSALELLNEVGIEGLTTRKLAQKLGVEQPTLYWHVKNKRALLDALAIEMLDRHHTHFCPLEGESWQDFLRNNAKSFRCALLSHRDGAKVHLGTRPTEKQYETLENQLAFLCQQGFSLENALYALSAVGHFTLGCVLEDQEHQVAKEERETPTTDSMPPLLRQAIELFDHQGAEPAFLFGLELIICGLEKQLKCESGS", "details": "pH 7.5, room temperature; allosteric effector"}, "[4]": {"target": "T1, CBD-HucR (Deinococcus radiodurans, UniProt Q9RV71)", "T1 construct": "gene DR_1159", "T1 sequence (Q9RV71 1-181)": "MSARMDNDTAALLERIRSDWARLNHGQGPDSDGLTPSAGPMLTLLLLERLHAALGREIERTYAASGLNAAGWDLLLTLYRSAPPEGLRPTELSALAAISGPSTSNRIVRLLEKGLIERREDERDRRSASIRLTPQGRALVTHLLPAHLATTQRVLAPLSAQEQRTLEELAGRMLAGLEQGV", "experiment": "EMSA, dissociation of operator dsDNA", "assay_type": "binding", "details": "0.05-500 uM uric acid; pH 7.5, room temperature; allosteric effector; also Cas12a read-out with immobilised protein"}, "[5]": {"target": "CBD-TetR (UniProt P04483 1-207)", "sequence (P04483 whole entry, the tested form may be a part)": "as the sequence (P04483 whole entry) above", "experiment": "EMSA; 25-200 nM protein, 40 nM DNA; EMSA: 10 mM Tris-HCl pH 7.5, 100 mM KCl, 1 mM EDTA, 0.1 mM DTT, 5% glycerol, 0.01 mg/mL BSA, room temperature 30 min; 1.5% agarose gel in Tris-borate-EDTA at 4", "details": "protein: recombinant; tags: CBD fused via (SGGGG)4 linker; His tag; chain copies: 2; blunt"}, "[6]": {"target": "T2, CBD-HucR (UniProt Q9RV71 1-181)", "T2 sequence": "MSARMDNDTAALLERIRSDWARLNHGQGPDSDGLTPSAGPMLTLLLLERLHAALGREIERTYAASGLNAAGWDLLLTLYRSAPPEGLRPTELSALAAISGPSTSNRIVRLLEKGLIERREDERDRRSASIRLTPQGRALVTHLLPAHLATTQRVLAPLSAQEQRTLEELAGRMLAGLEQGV", "experiment": "EMSA; 25-200 nM protein, 40 nM DNA; EMSA: 10 mM Tris-HCl pH 7.5, 100 mM KCl, 1 mM EDTA, 0.1 mM DTT, 5% glycerol, 0.01 mg/mL BSA, room temperature 30 min; 1.5% agarose gel in Tris-borate-EDTA at 4", "details": "protein: recombinant; tags: CBD fused via (SGGGG)4 linker; His tag; chain copies: 2; blunt"}}, "data": [{"molecule": "O=C(O)c1ccc(O)cc1", "note": "[p-HBA, p-hydroxybenzoic acid]", "values": [{"measurement": "EMSA, dissociation of operator dsDNA", "setting": "[1]", "value": "there were no significant differences between HosA and CBD-HosA on gel-shift images"}, {"measurement": "EMSA, dissociation of operator dsDNA", "setting": "[2]", "value": "p-HBA induced the almost complete dissociation of dsDNA from the CBD–HosA–dsDNA complex"}]}, {"molecule": "CN(C)[C@@H]1C(=O)C(C(N)=O)=C(O)[C@@]2(O)C(=O)C3=C(O)c4c(O)cccc4[C@@](C)(O)[C@H]3C[C@@H]12", "note": "[tetracycline]", "values": [{"measurement": "EMSA, dissociation of operator dsDNA", "setting": "[3]", "value": "Both CBD-TetR and CBD-HosA show perfect dsDNA-binding and effector-induced allosteric activities"}]}, {"molecule": "O=c1[nH]c(=O)c2[nH]c(=O)[nH]c2[nH]1", "note": "[uric acid]", "values": [{"measurement": "EMSA, dissociation of operator dsDNA", "setting": "[4]", "value": "increasing amounts of dsDNA dissociated from the CBD–HucR–dsDNA complex"}]}, {"molecule": "dsDNA(TetR) (dsDNA) DNA 1: TGAGCCATGTATCCAGGTCATTTGTCCCTATCAGTGATAGAGAAGCTCTGACAGTTCCA DNA 2: TGGAACTGTCAGAGCTTCTCTATCACTGATAGGGACAAATGACCTGGATACATGGCTCA", "values": [{"measurement": "binding result", "setting": "[5]", "value": "binds"}]}, {"molecule": "dsDNA(HucR) (dsDNA) DNA 1: TACTGAGCCATGTATCCAGGTCATTGTACTTAGATGTCTACCTAAGCTCTGACAGTTCCA DNA 2: TGGAACTGTCAGAGCTTAGGTAGACATCTAAGTACAATGACCTGGATACATGGCTCAGTA", "values": [{"measurement": "binding result", "setting": "[6]", "value": "binds"}]}]}
